Measured values from paper PMC5564600 (Oncotarget, 2017).
Read-outs that look alike come from different tables or passages of the source.

Tests used:
Assay in all cases: biochemical
Type in all cases: binding
panel of 442 kinases [1] = target: T1, panel of 442 kinases (Homo sapiens, UniProt O14936); details: CASK; for remaining activity at 1 µM: read-out: % of control at 1 µM
T1 construct: purchased Ambit Biosciences (scanMAXX KINOMEscan)
T1 sequence (O14936 1-926): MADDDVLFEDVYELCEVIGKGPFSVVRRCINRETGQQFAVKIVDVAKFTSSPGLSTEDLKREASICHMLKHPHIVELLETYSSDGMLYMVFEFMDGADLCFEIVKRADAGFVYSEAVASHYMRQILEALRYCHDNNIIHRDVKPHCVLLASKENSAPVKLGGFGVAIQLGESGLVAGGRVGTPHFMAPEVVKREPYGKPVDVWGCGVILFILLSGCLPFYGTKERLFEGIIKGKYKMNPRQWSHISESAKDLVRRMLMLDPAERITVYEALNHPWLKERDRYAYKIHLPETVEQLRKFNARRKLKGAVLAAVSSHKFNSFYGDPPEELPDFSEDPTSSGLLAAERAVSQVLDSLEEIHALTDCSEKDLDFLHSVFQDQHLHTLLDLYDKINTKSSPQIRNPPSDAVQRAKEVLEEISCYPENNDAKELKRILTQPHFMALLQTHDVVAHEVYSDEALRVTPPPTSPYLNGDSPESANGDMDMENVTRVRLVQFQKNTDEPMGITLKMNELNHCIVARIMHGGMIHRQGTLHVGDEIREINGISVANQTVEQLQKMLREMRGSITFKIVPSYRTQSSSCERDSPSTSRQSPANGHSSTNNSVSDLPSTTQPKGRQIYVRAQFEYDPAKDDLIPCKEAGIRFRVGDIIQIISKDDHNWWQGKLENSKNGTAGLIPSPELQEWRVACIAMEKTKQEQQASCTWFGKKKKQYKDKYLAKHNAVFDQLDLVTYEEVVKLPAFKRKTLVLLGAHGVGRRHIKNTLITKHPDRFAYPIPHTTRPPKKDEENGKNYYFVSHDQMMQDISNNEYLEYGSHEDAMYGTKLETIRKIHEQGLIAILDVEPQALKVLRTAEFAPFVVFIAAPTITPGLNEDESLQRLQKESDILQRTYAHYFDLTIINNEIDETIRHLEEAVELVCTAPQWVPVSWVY

panel of 442 kinases [2] = target: T2, panel of 442 kinases (Homo sapiens, UniProt P00519, H396P); details: for remaining activity at 1 µM: read-out: % of control at 1 µM; for remaining activity at 10 µM: read-out: % of control at 10 µM
T2 construct: purchased Ambit Biosciences (scanMAXX KINOMEscan)

panel of 442 kinases [3] = target: T3, panel of 442 kinases (Homo sapiens, UniProt P08581, Y1235D); details: kinase MET(Y1235D); for remaining activity at 1 µM: read-out: % of control at 1 µM
T3 construct: purchased Ambit Biosciences (scanMAXX KINOMEscan)

panel of 442 kinases [4] = target: T4, panel of 442 kinases (Homo sapiens, UniProt P11362); details: FGFR1; for remaining activity at 1 µM: read-out: % of control at 1 µM
T4 construct: purchased Ambit Biosciences (scanMAXX KINOMEscan)

panel of 442 kinases [5] = target: T5, panel of 442 kinases (Homo sapiens, UniProt P24723); details: kinase PRKCH; for remaining activity at 1 µM: read-out: PRKCH (% of control at 1 µM)
T5 construct: purchased Ambit Biosciences (scanMAXX KINOMEscan)

panel of 442 kinases [6] = target: T6, panel of 442 kinases (Homo sapiens, UniProt P49761); details: CLK3; for remaining activity at 1 µM: read-out: % of control at 1 µM
T6 construct: purchased Ambit Biosciences (scanMAXX KINOMEscan)

panel of 442 kinases [7] = target: T7, panel of 442 kinases (Homo sapiens, UniProt Q13043); details: kinase MST1; for remaining activity at 1 µM: read-out: % of control at 1 µM
T7 construct: purchased Ambit Biosciences (scanMAXX KINOMEscan)
T7 sequence (Q13043 1-487): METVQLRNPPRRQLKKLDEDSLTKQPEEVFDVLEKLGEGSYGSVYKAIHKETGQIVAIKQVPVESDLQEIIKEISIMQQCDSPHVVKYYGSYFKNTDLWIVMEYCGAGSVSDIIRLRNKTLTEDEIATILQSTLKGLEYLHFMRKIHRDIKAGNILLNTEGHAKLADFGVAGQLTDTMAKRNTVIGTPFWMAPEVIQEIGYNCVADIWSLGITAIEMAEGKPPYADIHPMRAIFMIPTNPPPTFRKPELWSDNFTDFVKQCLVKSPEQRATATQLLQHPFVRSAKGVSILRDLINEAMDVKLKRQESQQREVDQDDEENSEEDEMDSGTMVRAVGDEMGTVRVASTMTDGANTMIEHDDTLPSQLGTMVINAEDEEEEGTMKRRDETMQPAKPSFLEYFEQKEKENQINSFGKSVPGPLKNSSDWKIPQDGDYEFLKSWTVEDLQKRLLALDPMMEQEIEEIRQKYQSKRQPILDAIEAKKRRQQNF

panel of 442 kinases [8] = target: T8, panel of 442 kinases (Homo sapiens, UniProt Q13882); details: BRK; for remaining activity at 1 µM: read-out: % of control at 1 µM
T8 construct: purchased Ambit Biosciences (scanMAXX KINOMEscan)

panel of 442 kinases [9] = target: T9, panel of 442 kinases (Homo sapiens, UniProt Q86YV6); details: kinase MYLK4; for remaining activity at 1 µM: read-out: % of control at 1 µM
T9 construct: purchased Ambit Biosciences (scanMAXX KINOMEscan)
T9 sequence (Q86YV6 1-388): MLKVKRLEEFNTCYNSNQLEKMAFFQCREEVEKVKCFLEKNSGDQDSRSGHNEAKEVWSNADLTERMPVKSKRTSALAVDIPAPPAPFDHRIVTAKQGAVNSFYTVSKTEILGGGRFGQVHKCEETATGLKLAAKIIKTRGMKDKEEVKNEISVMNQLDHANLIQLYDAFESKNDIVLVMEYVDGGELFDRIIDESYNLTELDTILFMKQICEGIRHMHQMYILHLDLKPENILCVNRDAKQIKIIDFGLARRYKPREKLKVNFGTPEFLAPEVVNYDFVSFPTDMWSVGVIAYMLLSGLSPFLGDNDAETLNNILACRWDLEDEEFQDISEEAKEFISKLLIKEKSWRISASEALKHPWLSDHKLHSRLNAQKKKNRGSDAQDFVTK

panel of 442 kinases [10] = target: T10, panel of 442 kinases (Homo sapiens, UniProt Q96Q40); details: kinase PFTAIRE2; for remaining activity at 1 µM: read-out: % of control at 1 µM
T10 construct: purchased Ambit Biosciences (scanMAXX KINOMEscan)

panel of 442 kinases [11] = target: T11, panel of 442 kinases (Homo sapiens, UniProt Q9P1W9); details: kinase PIM2; for remaining activity at 1 µM: read-out: % of control at 1 µM
T11 construct: purchased Ambit Biosciences (scanMAXX KINOMEscan)

panel of 442 kinases [12] = target: T12, panel of 442 kinases (Homo sapiens, UniProt Q9Y2K2); details: kinase QSK; for remaining activity at 1 µM: read-out: QSK (% of control at 1 µM)
T12 construct: purchased Ambit Biosciences (scanMAXX KINOMEscan)

panel of 442 kinases [13] = target: T13, panel of 442 kinases (Homo sapiens, UniProt Q9Y5S2); details: kinase MRCKB; for remaining activity at 1 µM: read-out: % of control at 1 µM
T13 construct: purchased Ambit Biosciences (scanMAXX KINOMEscan)

[14] = 10 µM, read-out: % of control at 10 µM

T8 sequence (Q13882 whole entry): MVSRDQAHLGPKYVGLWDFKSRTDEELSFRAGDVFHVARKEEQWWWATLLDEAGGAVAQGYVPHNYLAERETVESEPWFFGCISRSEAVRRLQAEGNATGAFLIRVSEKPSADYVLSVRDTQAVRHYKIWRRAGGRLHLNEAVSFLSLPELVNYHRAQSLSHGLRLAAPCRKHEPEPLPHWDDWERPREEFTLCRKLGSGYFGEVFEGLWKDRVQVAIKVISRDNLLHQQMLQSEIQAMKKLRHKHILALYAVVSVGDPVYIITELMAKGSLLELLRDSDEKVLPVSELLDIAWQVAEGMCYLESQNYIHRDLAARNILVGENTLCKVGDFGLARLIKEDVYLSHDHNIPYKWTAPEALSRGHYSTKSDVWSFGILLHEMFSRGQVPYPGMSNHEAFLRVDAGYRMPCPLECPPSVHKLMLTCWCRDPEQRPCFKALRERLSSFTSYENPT
T3 sequence (P08581 25-1390 Y1235D): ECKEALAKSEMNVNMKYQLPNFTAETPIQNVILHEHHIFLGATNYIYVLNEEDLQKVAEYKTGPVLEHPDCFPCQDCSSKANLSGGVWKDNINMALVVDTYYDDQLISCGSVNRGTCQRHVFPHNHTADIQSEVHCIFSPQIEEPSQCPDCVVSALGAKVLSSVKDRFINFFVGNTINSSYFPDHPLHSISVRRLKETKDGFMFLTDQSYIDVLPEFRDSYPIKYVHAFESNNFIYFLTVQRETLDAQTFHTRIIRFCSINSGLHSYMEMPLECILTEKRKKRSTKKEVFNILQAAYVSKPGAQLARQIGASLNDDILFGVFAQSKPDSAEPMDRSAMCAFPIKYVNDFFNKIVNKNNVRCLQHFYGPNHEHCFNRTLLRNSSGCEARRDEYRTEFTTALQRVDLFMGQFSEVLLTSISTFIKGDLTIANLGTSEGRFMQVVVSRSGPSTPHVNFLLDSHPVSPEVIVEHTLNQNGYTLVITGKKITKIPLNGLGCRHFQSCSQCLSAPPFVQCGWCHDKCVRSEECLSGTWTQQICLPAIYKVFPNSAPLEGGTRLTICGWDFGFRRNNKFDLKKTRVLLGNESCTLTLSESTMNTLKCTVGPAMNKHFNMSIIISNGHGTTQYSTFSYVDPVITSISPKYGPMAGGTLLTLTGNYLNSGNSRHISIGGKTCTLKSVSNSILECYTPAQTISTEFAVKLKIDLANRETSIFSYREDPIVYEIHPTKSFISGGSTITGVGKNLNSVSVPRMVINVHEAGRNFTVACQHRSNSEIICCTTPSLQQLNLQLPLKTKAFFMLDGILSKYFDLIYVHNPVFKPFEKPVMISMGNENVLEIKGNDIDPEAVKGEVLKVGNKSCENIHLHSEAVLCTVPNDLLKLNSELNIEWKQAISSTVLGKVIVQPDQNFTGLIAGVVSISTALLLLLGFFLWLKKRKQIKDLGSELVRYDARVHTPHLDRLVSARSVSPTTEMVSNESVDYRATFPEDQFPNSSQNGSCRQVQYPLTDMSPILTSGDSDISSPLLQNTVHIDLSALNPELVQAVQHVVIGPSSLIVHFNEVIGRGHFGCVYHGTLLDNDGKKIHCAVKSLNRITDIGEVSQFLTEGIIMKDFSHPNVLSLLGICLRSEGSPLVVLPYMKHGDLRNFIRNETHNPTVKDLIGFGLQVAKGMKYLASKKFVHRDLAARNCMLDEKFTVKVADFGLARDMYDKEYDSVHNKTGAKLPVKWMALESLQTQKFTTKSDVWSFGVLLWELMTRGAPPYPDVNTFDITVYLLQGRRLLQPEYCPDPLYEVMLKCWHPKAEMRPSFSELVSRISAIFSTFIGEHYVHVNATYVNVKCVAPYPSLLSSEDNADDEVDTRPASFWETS
T11 sequence (Q9P1W9 whole entry): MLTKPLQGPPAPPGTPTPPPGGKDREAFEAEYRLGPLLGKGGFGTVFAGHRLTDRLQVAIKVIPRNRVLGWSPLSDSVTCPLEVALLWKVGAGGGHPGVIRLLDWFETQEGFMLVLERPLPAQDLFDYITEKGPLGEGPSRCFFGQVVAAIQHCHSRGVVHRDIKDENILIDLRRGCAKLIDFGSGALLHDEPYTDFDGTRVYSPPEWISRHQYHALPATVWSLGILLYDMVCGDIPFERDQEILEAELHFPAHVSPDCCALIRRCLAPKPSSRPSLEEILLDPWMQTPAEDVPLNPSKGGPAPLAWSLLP
T6 sequence (P49761 whole entry): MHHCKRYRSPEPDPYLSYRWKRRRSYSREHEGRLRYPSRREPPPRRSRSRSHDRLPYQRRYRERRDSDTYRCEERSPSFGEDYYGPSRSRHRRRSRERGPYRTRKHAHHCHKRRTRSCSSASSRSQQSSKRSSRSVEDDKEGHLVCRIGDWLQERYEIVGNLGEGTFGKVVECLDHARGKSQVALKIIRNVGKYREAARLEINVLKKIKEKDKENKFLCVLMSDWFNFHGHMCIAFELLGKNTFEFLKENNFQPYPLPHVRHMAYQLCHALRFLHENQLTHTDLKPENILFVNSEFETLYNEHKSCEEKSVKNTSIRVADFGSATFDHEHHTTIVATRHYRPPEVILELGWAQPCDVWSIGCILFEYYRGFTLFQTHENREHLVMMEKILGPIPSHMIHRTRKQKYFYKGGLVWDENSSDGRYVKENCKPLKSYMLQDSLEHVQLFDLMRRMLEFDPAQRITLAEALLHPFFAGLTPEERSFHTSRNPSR
T10 sequence (Q96Q40 whole entry): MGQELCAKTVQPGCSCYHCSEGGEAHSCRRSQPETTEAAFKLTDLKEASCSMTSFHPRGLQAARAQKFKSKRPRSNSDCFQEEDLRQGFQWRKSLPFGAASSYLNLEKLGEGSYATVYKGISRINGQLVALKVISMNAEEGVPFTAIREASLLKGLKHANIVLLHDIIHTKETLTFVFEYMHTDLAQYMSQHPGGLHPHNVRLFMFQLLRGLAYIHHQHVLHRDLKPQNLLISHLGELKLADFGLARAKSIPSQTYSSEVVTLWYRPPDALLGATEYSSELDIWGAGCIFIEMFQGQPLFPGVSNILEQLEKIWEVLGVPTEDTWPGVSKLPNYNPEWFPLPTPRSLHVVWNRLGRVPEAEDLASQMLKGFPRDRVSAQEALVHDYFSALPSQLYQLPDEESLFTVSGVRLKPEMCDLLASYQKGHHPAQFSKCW
T4 sequence (P11362 22-822): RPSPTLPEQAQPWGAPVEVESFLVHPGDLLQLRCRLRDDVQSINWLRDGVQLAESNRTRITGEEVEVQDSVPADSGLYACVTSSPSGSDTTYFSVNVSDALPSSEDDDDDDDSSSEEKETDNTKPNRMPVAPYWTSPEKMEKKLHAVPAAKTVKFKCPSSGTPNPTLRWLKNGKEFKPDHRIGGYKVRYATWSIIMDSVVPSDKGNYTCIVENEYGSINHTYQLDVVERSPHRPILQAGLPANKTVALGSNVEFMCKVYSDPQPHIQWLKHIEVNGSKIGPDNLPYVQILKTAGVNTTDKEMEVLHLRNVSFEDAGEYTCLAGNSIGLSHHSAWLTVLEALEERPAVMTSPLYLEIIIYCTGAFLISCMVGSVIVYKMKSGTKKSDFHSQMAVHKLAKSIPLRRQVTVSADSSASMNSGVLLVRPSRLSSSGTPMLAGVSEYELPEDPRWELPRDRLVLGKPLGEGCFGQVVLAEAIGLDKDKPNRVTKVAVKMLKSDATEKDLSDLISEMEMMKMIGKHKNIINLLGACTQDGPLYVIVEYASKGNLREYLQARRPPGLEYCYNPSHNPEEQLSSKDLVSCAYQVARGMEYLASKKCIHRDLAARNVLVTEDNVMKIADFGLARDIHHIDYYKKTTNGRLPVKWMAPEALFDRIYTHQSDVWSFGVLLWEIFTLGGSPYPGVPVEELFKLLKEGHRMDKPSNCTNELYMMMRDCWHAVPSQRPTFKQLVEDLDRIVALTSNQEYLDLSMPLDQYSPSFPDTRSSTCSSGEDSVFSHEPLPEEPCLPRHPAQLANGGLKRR
T5 sequence (P24723 whole entry): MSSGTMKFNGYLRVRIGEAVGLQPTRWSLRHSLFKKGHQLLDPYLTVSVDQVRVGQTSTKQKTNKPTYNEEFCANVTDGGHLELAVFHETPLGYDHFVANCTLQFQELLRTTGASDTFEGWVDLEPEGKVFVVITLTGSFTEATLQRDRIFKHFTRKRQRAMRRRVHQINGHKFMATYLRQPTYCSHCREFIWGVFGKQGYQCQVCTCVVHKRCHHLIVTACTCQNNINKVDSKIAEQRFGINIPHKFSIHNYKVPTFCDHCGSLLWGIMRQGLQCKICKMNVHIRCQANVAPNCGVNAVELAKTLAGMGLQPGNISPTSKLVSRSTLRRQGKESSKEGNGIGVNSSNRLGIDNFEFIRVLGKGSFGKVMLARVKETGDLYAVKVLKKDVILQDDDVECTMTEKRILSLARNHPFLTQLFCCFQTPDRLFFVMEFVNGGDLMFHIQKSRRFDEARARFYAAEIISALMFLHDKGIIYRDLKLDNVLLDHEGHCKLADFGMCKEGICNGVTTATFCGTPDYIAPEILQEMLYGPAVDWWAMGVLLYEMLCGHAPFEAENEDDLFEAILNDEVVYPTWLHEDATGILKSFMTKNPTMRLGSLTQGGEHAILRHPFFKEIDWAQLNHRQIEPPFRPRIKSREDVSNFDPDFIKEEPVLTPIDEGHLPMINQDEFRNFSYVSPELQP

| Compound | remaining activity at 1 µM (panel of 442 kinases [1]) [%] | remaining activity at 1 µM (panel of 442 kinases [2]; ABL1(H396P)-nonphosphorylated) [%] | remaining activity at 1 µM (panel of 442 kinases [2]; ABL1(H396P)-phosphorylated) [%] | remaining activity at 1 µM (panel of 442 kinases [3]) [%] | remaining activity at 1 µM (panel of 442 kinases [4]) [%] | remaining activity at 1 µM (panel of 442 kinases [5]) [%] | remaining activity at 1 µM (panel of 442 kinases [6]) [%] | remaining activity at 1 µM (panel of 442 kinases [7]) [%] | remaining activity at 1 µM (panel of 442 kinases [8]) [%] | remaining activity at 1 µM (panel of 442 kinases [9]) [%] | remaining activity at 1 µM (panel of 442 kinases [10]) [%] | remaining activity at 1 µM (panel of 442 kinases [11]) [%] | remaining activity at 1 µM (panel of 442 kinases [12]) [%] | remaining activity at 1 µM (panel of 442 kinases [13]) [%] | other results |
| --- | --- | --- | --- | --- | --- | --- | --- | --- | --- | --- | --- | --- | --- | --- | --- |
| Nc1cc(C(F)(F)F)c(-c2cc(N3CCOCC3)nc(N3CCOCC3)n2)cn1 [Buparlisib] | 99 | 99 | 96 | 100 | 100 | 99 | 100 | 95 | 100 | 100 | 100 | 91 | 100 | 100 | remaining activity at 10 µM (panel of 442 kinases [1]; [14]): 100%; remaining activity at 10 µM (panel of 442 kinases [2]; ABL1(H396P)-nonphosphorylated): 100%; remaining activity at 10 µM (panel of 442 kinases [2]; ABL1(H396P)-phosphorylated): 100%; remaining activity at 10 µM (panel of 442 kinases [3]; [14]): 99%; remaining activity at 10 µM (panel of 442 kinases [4]; [14]): 100%; remaining activity at 10 µM (panel of 442 kinases [5]; 10 µM, read-out: PRKCH (% of control at 10 µM)): 100%; remaining activity at 10 µM (panel of 442 kinases [6]; [14]): 94%; remaining activity at 10 µM (panel of 442 kinases [7]; [14]): 100%; remaining activity at 10 µM (panel of 442 kinases [8]; [14]): 100%; remaining activity at 10 µM (panel of 442 kinases [9]; [14]): 100%; remaining activity at 10 µM (panel of 442 kinases [10]; [14]): 100%; remaining activity at 10 µM (panel of 442 kinases [11]; [14]): 100%; remaining activity at 10 µM (panel of 442 kinases [12]; 10 µM, read-out: QSK (% of control at 10 µM)): 100%; remaining activity at 10 µM (panel of 442 kinases [13]; [14]): 100% |
| Cn1c(=O)n(-c2ccc(C(C)(C)C#N)cc2)c2c3cc(-c4cnc5ccccc5c4)ccc3ncc21 [Dactolisib, 2-methyl-2-[4-(3-methyl-2-oxo-8-quinolin-3-yl-2,3-dihydroimidazo[4,5-c]quinolin-1-yl)-phenyl] propionitrile] | 100 | 70 | 79 |  | 94 | 78 | 50 | 66 | 90 | 95 | 82 | 100 | 100 | 86 |  |
| COc1ncc(-c2ccc3nccc(-c4ccnnc4)c3c2)cc1NS(=O)(=O)c1ccc(F)cc1F [Omipalisib] | 75 | 100 | 100 | 100 | 94 | 100 | 93 | 100 | 91 | 84 | 100 | 98 | 100 | 100 |  |
| FC(F)c1nc2ccccc2n1-c1nc(N2CCOCC2)nc(N2CCOCC2)n1 [ZSTK474, 2-(difluoromethyl)-1-[4,6-di(4-morpholinyl)-1,3,5-triazin-2-yl]-1H-benzimidazole] | 87 | 100 | 100 | 92 | 100 | 98 | 100 | 53 | 91 | 100 | 83 | 100 | 65 | 80 |  |
